# Experiments:
# p42^mapk = biological target: T1, p42^mapk (Mus musculus, UniProt P63085); assay: Inhibition constant of the ATP derivative / Km for ATP, p42^mapk assay; assay type: biochemical; settings: 20 μM ATP
# T1 construct: made in house
# Description: (§1) [γ-^32 P] ATP was synthesized according to the procedure set forth in Johnson et al., Advances in Cyclic Nucleotide Research, 10:135-167 (1979). The catalytic subunit of cyclic-AMP-dependent protein kinase was purchased from Promega. p60^c-arc was obtained from the Department of Microbiology, University of Virginia. Recombinant p42^mapk was purified as described in Haystead et al., (1992) FEBS Lett., 306:17-22. STE7 antibody was obtained from the University of Vancouver, Canada.
# (§2) The 42-kDa MAP kinase (p42^mapk) and MAPKK were assayed as described previously (Haystead et al. (1992) FEBS. Lett., 306:17-22). The cyclic-A kinase assays (30 μl) included 1 μg cyclic-A kinase, 2 mM Kemptide, 50 mM Hepes, pH 7.4, 1 mM dithiothreitol, 200 μM ATP, 5 mM MgCl2. […]
# (§3) In order to assess the effectiveness of adenosine 5'-(γ-4-aminophenyl)triphosphate as an affinity ligand for protein kinases, the inhibition constants (Ki) of the derivative were determined for four different protein kinases, namely, p42^mapk, cyclic-A kinase, MAPKK and p60^c-arc (Table 1). […] This also facilitated comparisons for the relative binding constants determined with other ATP analogs (Flockhart et al. (1984) Eur. J. Biochem., 140:289-295; Hoppe et al. (1972) Eur. J. Biochem., 80:369-372; Taylor et al. (1990) Peptides and Protein Phosphorylation (Kemp et al.) pp 2-32, CRC Press).
# MAPKK = biological target: T2, MAPKK (Oryctolagus cuniculus, UniProt P29678); assay: Inhibition constant of the ATP derivative / Km for ATP, MAPKK assay; assay type: biochemical, rabbit
# T2 construct: MAPKK, from rabbit skeletal muscle, was partially purified 600-fold; from tissue; host or cells: skeletal muscle (back and hind-limb) of a female New Zealand white rabbit
# Experimental: A fed female New Zealand white rabbit was euthanized by lethal injection with phenobarbital via the marginal ear vein. The back and hind-limb skeletal muscle (300 g) were rapidly excised, minced and homogenized at 4° C. with 2.5 vol. solution C (50 mM 2-glycerophosphate, pH 7.3, 1.5 mM EGTA, 0.15 μM sodium orthovanidate, 1 mM dithiothreitol, 1 mM phenylmethanesulfonyl fluoride, 1 mM benzamidine) containing 6 μg/ml leupeptin. All subsequent steps were carried out at 4° C. […] The DEAE was packed into a glass column (20 cm×50 cm) washed with solution C until the absorbance at […] of the eluate was <0.005 absorbance. […]
# as §3
# p60^c-src = biological target: T3, p60^c-src (Homo sapiens, UniProt P12931); assay: Inhibition constant of the ATP derivative / Km for ATP, p60^c-src assay (peptide substrate); assay type: biochemical; settings: 20 μM ATP
# T3 construct: Department of Microbiology, University of Virginia (obtained from; not a purchase)
# Description: as §1, §2, §3
# [1] = system: four different protein kinases, namely, p42^mapk, cyclic-A kinase, MAPKK and p60^c-arc; assay: Inhibition of four protein kinases by the ATP derivative (summary over all enzymes); assay type: biochemical
# Experimental: The 42-kDa MAP kinase (p42^mapk) and MAPKK were assayed as described previously (Haystead et al. (1992) FEBS. Lett., 306:17-22). The cyclic-A kinase assays (30 μl) included 1 μg cyclic-A kinase, 2 mM Kemptide, 50 mM Hepes, pH 7.4, 1 mM dithiothreitol, 200 μM ATP, 5 mM MgCl2. Reactions were terminated by spotting 25 μl assay mixture onto P81 paper as described in Haystead et al. (1992) FEBS Lett., 306:17-22. p60^c-arc assays were similar, except a 2 mM peptide (Rossomando et al., 1992) Proc. Natl. Acad. Sci., 89:5221-5225) was used as the substrate.
# In order to assess the effectiveness of adenosine 5'-(γ-4-aminophenyl)triphosphate as an affinity ligand for protein kinases, the inhibition constants (Ki) of the derivative were determined for four different protein kinases, namely, p42^mapk, cyclic-A kinase, MAPKK and p60^c-arc (Table 1). The Ki was determined in the presence of 20 μM ATP. However, since the Km for ATP varied for each protein kinase tested, for comparative purposes it was convenient to determine the Ki /Km quotient (Table 1). This also facilitated comparisons for the relative binding constants determined with other ATP analogs (Flockhart et al. (1984) Eur. J. Biochem., 140:289-295; Hoppe et al. (1972) Eur. J. Biochem., 80:369-372; Taylor et al. (1990) Peptides and Protein Phosphorylation (Kemp et al.) pp 2-32, CRC Press).
# Cyclic A kinase = Cyclic A kinase (Bos taurus, UniProt P00517); assay: Inhibition constant of the ATP derivative / Km for ATP, cyclic-A kinase assay (Kemptide substrate)
# [2] = [Mg^2+] reduced to levels equimolar with free ATP
# T2 sequence (P29678 whole entry): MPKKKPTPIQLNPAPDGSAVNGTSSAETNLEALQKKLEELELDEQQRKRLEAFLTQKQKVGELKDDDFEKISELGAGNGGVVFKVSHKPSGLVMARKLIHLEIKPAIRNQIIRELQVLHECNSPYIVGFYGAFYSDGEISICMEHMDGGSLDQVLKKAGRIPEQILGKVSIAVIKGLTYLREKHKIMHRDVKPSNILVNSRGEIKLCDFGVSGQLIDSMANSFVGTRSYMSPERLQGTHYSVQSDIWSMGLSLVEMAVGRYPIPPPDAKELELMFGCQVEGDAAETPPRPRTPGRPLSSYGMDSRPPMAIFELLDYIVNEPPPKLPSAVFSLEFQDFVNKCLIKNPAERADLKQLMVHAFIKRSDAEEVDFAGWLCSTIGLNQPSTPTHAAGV
# T3 sequence (P12931 whole entry): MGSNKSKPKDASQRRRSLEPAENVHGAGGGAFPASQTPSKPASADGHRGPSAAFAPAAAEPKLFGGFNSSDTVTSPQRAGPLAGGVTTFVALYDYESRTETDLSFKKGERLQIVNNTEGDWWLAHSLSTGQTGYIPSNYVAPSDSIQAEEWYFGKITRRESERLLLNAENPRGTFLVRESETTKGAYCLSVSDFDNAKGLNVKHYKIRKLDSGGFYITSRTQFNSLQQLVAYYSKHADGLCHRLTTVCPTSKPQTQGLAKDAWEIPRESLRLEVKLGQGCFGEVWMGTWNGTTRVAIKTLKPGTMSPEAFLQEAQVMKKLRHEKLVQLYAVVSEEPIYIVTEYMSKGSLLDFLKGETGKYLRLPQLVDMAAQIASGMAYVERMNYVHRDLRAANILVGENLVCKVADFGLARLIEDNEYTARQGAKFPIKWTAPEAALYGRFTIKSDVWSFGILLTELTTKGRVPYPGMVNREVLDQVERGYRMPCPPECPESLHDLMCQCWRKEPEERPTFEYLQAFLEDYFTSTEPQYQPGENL
# T1 sequence (P63085 whole entry): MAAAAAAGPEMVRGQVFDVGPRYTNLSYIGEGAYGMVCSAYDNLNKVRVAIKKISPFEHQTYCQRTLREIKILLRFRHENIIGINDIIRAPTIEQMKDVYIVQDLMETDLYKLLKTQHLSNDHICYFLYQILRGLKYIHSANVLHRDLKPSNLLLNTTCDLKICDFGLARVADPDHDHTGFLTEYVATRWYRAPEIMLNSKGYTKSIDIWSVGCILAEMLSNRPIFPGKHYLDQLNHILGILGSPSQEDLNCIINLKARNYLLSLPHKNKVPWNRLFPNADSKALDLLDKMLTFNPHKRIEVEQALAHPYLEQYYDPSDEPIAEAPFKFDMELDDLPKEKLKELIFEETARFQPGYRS
smiles,measurement,setting,value
Nc1ccc(OP(=O)(O)OP(=O)(O)OP(=O)(O)OC[C@H]2O[C@@H](n3cnc4c(N)ncnc43)[C@H](O)[C@@H]2O)cc1 [adenosine-5'-(γ-4-aminophenyl)triphosphate],Ki /Km,p42^mapk; Km for ATP,10.02
same,Ki,p42^mapk; read-out: Ki ± SDM,75.2 ± 8.2 µM
same,Ki,MAPKK,176 ± 22.1 µM
same,Ki /Km,"MAPKK; MAPKK, 20 μM ATP, Km for ATP",15.20
same,Ki /Km,p60^c-src; Km for ATP,19.35
same,Ki,p60^c-src; read-out: Ki ± SDM,120 ± 13.6 µM
same,competition with ATP,[1]; 20 μM ATP,competes with ATP
same,Ki /Km quotient,"[1]; 20 μM ATP, range over four enzymes",10-20
same,Ki,"[1]; 20 μM ATP, range over four enzymes, read-out: apparent Ki values obtained against each enzyme",75 to 180 µM
same,effect on the Ki /Km quotient of reduced [Mg^2+],[1]; [2],no effect
same,effect on the Ki of reduced [Mg^2+],[1]; [2],no effect
same,Ki,Cyclic A kinase,104 ± 11.6 µM
same,Ki /Km,"Cyclic A kinase; cyclic A kinase, 20 μM ATP, Km for ATP",14.60

# — US5536822A, “γ-phosphate linked adenosine 5' triphosphate sepharose” (University of Virginia Alumni Patents Foundation, priority 1994, dated 1996)
